Reference: ChEMBL document CHEMBL1126629 (J Med Chem, 1993)
pIC50: −log10 of the molar value.

Key:
[1] = target: Sodium-dependent serotonin transporter (Homo sapiens, UniProt P31645); assay: Ability to inhibit [3H]citalopram binding to serotonin transporter in cynomolgus monkey striatum; assay type: tissue-based, Cercopithecidae; settings: target entry is the homologue from another species
[2] = Selectivity ratio is IC 50 value of dopamine receptor to that of serotonin 5-HT

Sodium-dependent serotonin transporter, sequence (P31645 whole entry): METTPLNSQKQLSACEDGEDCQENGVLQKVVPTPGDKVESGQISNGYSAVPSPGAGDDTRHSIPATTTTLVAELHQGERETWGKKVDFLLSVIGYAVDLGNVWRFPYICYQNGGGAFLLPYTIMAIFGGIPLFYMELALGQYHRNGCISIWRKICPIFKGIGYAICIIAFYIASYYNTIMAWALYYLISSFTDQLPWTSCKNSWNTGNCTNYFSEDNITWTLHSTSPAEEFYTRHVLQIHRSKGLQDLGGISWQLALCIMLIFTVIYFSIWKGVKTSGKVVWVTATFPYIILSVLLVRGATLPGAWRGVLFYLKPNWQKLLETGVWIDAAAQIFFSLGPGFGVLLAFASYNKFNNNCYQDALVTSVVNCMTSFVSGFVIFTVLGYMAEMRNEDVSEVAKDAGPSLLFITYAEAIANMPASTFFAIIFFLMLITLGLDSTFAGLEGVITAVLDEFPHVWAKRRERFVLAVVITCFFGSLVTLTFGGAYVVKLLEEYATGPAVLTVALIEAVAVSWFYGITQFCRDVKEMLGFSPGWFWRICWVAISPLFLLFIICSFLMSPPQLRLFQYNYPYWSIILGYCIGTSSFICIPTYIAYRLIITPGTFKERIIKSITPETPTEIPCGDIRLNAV

| Compound | pIC50 [1] | Selectivity ratio [2] |
| --- | --- | --- |
| COC(=O)C1C2CCC(CC1c1ccc(Cl)c(Cl)c1)N2 (configuration not stated) | 8.85 | – |
| COC(=O)[C@H]1[C@@H](c2ccc(F)cc2)C[C@H]2CC[C@H]1N2C | 6.80 | – |
| COC(=O)C1C2CCC(CC1c1ccc(Cl)cc1)N2 (configuration not stated) | 8.79 | 1 |
| COC(=O)C1C(c2ccc(Cl)c(Cl)c2)CC2CCC1N2C (configuration not stated) | 8.61 | 2 |
| COC(=O)C1C(c2ccc(I)cc2)CC2CCC1N2C (configuration not stated) | 8.60 | 2 |
| COC(=O)C1C(c2cccc(Br)c2)CC2CCC1N2C (configuration not stated) | 7.69 | 3 |
| COC(=O)C1C(c2cccc(I)c2)CC2CCC1N2C (configuration not stated) | 8.01 | 0.4 |
